# In patent publication US20240034729A9, “HETEROCYCLIC COMPOUND, INTERMEDIATE, PREPARATION METHOD THEREFOR AND APPLICATION THEREOF” (WUHAN LL SCIENCE AND TECHNOLOGY DEVELOPMENT CO., LTD., priority 2018, published 2024):
# Read-outs that look alike come from different tables or passages of the source.
# Key:
# Type in all cases: cell-based
# [1] = target: hP2X3 (human purinergic P2X receptor subtype 3) (Homo sapiens (Human), UniProt P56373); assay: FLIPR calcium assay, hP2X3 expressed in HEK293 cells; details: read-out: P2X3 IC50
# Chain of hP2X3 (human purinergic P2X receptor subtype 3) (P56373 whole entry): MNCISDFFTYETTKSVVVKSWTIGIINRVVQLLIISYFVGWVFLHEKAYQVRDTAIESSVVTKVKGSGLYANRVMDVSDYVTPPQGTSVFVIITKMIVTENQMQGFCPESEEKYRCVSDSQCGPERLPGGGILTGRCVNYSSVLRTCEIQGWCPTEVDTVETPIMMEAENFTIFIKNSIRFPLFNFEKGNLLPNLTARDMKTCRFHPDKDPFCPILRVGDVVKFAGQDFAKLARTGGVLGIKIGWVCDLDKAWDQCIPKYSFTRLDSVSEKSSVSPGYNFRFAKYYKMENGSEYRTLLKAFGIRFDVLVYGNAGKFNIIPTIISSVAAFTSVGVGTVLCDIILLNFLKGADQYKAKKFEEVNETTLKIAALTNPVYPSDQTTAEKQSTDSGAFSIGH
# [2] = target: hP2X2/3 (heterodimeric receptors formed by human purinergic P2X receptors subtype 2 and subtype 3) (Homo sapiens (Human), UniProt P56373+Q9UBL9); assay: FLIPR calcium assay, hP2X2/3 expressed in HEK293 cells (P2X2/3 receptor selectivity); details: for IC50: HEK293 cells expressing hP2X2/3, agonist BZ-ATP 5 μM, unit inferred
# Chain of hP2X2/3 (heterodimeric receptors formed by human purinergic P2X receptors subtype 2 and subtype 3) (P56373 whole entry): as above
# Chain of hP2X2/3 (heterodimeric receptors formed by human purinergic P2X receptors subtype 2 and subtype 3) (Q9UBL9 whole entry): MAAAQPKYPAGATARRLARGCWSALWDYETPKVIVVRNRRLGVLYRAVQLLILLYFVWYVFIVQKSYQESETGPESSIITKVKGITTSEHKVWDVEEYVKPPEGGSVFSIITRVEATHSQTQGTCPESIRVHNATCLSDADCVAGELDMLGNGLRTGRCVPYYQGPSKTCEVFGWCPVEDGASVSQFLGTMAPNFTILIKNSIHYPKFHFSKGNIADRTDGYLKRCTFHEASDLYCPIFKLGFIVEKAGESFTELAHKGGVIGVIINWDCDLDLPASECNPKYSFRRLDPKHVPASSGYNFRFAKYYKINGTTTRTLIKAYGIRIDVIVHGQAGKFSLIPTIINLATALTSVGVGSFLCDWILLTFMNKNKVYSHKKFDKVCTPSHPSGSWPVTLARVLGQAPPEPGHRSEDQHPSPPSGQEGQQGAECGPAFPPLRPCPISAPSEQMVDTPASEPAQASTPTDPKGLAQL
# [3] = In vitro cytotoxicity assay, CCK-8 method; details: human, HepG2 cells
# Method: In vitro cytotoxicity assay for the compounds disclosed herein was performed in HepG2 cells using the CCK-8 method. HepG2 cells (Beina Bio) in the logarithmic growth phase were collected, the concentration of cell suspension was adjusted, and then the cells were plated on a 96-well cell culture plate at 50,000 cells/well. The cells were then incubated overnight in a cell incubator of 5% […] at 37° C., and after 80-90% cell confluence was achieved, test compounds or vehicle (DMSO) at various concentration gradients were added after medium change. The plate was incubated in a cell incubator of 5% […] at 37° C. for 48 h. After the treatment, the medium in the plate was discarded. The plate was washed twice with PBS, added with CCK-8 working solution (Beyotime) at 100 μL per well, and then incubated at 37° C. for 1.5 h away from light. Absorbance at OD450nm was measured for each well on a microplate reader, and CC50 value of each compound was analyzed and calculated.
# [4] = HEK293 cells expressing hP2X3, agonist BZ-ATP 2.5 μM, class symbols
structure (smiles),measurement,setting,value
COC(=O)N1CCO[C@@H](Cc2c(-c3ncc(S(N)(=O)=O)nc3Cl)nc3cc(C)ccn23)C1 [Compound 191],IC50,[1],< 0.01 µM
same,Folds of selectivity,[2],A (key: A: folds of selectivity >1000; B: 200< folds of selectivity ≤1000; C: folds of selectivity ≤200)
same,IC50,[2],> 60 µM
COC(=O)N1CCO[C@@H](Cc2c(-c3c(F)cc(-n4cnnn4)cc3F)nc3cc(C)ccn23)C1 [Compound 58],Folds of selectivity,[2],A (key: A: folds of selectivity >1000; B: 200< folds of selectivity ≤1000; C: folds of selectivity ≤200)
same,IC50,[2],> 60 µM
"CC(=O)N1CCO[C@@H](Cc2c(-c3c(F)cc(-n4ccnc4)cc3F)nc3cc(Cl)ccn23)C1 [Compound 158, (S)-1-(2-((7-chloro-2-(2,6-difluoro-4-(1H-imidazol-1-yl)phenyl)imidazo[1,2-a]pyridin-3-yl)methyl)morpholino)ethan-1-one]",IC50,[1],< 0.01 µM
same,CC50 at 48 h,[3],> 100 µM
same,Folds of selectivity,[2],A (key: A: folds of selectivity >1000; B: 200< folds of selectivity ≤1000; C: folds of selectivity ≤200)
same,IC50,[2],> 60 µM
"CC(=O)N1CCO[C@@H](Cc2c(-c3c(F)cc(-n4cccn4)cc3F)nc3cc(Cl)ccn23)C1 [Compound 160, (S)-1-(2-((7-chloro-2-(2,6-difluoro-4-(1H-pyrazol-1-yl)phenyl)imidazo[1,2-a]pyridin-3-yl)methyl)morpholino)ethan-1-one]",CC50 at 48 h,[3],> 100 µM
CC(=O)N1CCO[C@@H](Cc2c(-c3c(F)cc(-c4nnc[nH]4)cc3F)nc3cc(Cl)ccn23)C1 [Compound 166],IC50,[1],< 0.01 µM
same,CC50 at 48 h,[3],> 100 µM
same,Folds of selectivity,[2],A (key: A: folds of selectivity >1000; B: 200< folds of selectivity ≤1000; C: folds of selectivity ≤200)
same,IC50,[2],> 60 µM
"COC(=O)N1CCO[C@@H](Cc2c(-c3c(F)cc(NC(=O)CC4(C(=O)O)CC4)cc3F)nc3cc(C)ccn23)C1 [Compound 61, (S)-1-(2-((3,5-difluoro-4-(3-((4-(carbomethoxy<methoxycarbonyl>)morpholin-2-yl)methyl)-7-methylimidazo [1,2-a]pyridin-2-yl)phenyl)amino)-2-carbonylethyl)cyclopropanecarboxylic acid]",IC50,[1],< 0.01 µM
same,Folds of selectivity,[2],A (key: A: folds of selectivity >1000; B: 200< folds of selectivity ≤1000; C: folds of selectivity ≤200)
same,IC50,[2],> 60 µM
COC(=O)N1CCO[C@@H](Cc2c(-c3c(F)cc(NC(C)=O)cc3F)nc3cc(C(F)F)ccn23)C1 [Compound 151],IC50,[1],< 0.01 µM
same,Folds of selectivity,[2],A (key: A: folds of selectivity >1000; B: 200< folds of selectivity ≤1000; C: folds of selectivity ≤200)
same,IC50,[2],> 60 µM
"CC(=O)N1CCO[C@@H](Cc2c(-c3c(F)cc(-c4ncco4)cc3F)nc3cc(Cl)ccn23)C1 [Compound 159, (S)-1-(2-((7-chloro-2-(2,6-difluoro-4-(oxazol-2-yl)phenyl)imidazo[1,2-a]pyridin-3-yl)methyl)morpholino)ethan-1-one]",CC50 at 48 h,[3],> 100 µM
"CNC(=O)c1cc(F)c(-c2oc3cc(C)cnc3c2C[C@H]2CN(C(=O)OC)CCO2)c(F)c1 [Compound 54, methyl (S)-2-((2-(2,6-difluoro-4-(methylcarbamoyl)phenyl)-6-methylfurano[3,2-b]pyridin-3-yl)methyl)morpholine-4-carboxylate]",IC50,[1],< 0.01 µM
same,Folds of selectivity,[2],A (key: A: folds of selectivity >1000; B: 200< folds of selectivity ≤1000; C: folds of selectivity ≤200)
same,IC50,[2],> 60 µM
"COC(=O)N1CCO[C@@H](Cc2c(-c3c(F)cc(-c4ccc(C#N)[nH]4)cc3F)nc3cc(C)ccn23)C1 [Compound 138, methyl (S)-2-((2-(2,6-difluoro-4-(5-cyano-1H-pyrrol-2-yl)phenyl)-7-methylimidazo[1,2-a]pyridin-3-yl)methyl)morpholine-4-carboxylate]",IC50,[1],< 0.01 µM
same,Folds of selectivity,[2],A (key: A: folds of selectivity >1000; B: 200< folds of selectivity ≤1000; C: folds of selectivity ≤200)
same,IC50,[2],> 60 µM
"CC(=O)N1CCO[C@@H](Cc2c(-c3c(F)cc(-c4ncco4)cc3F)nc3cc(C)ccn23)C1 [Compound 163, (S)-1-(2-((2-(2,6-difluoro-4-(oxazol-2-yl)phenyl)-7-methylimidazo[1,2-a]pyridin-3-yl)methyl)morpholino)ethan-1-one]",CC50 at 48 h,[3],> 100 µM
"CNC(=O)Cc1cc(F)c(-c2nc3cc(C)ccn3c2C[C@H]2CN(C(=O)OC)CCO2)c(F)c1 [Compound 64, methyl (S)-2-((2-(4-(2-(methylamino)-2-oxoethyl)-2,6-difluorophenyl)-7-methylimidazo[1,2-a]pyridin-3-yl)methyl) morpholine-4-carboxylate]",IC50,[1],0.05 to 0.2 µM
"CNC(=O)c1cc(F)c(-c2nc3cc(C)ccn3c2CN2CCNCC2=O)c(F)c1 [Compound 48, (S)-2-((2-(2,6-difluoro-4-(methylcarbamoyl)phenyl)-7-methylimidazo[1,2-a]pyridin-3-yl)methyl)-2-carbonyl-piperazine]",IC50,[1],0.05 to 0.2 µM
COC(=O)N1CCO[C@@H](Cc2c(-c3c(F)cc(-n4ccc(C5(C(=O)O)CC5)c4)cc3F)nc3cc(C)ccn23)C1 [Compound 136],IC50,[1],0.05 to 0.2 µM
"CC(=O)Nc1cc(F)c(-c2nc3cc(C)ccn3c2C[C@H]2CN(C(C)=O)CCO2)c(F)c1 [Compound 167, (S)—N-(4-(3-((4-acetylmorpholin-2-yl)methyl)-7-methylimidazo[1,2-a]pyridin-2-yl)-3,5-difluorophenyl)acetamide]",CC50 at 48 h,[3],> 100 µM
"COC(=O)N1CCO[C@@H](Cc2c(-c3c(F)cc(-n4ccnn4)cc3F)nc3cc(C)ccn23)C1 [Compound 141, methyl (S)-2-((2-(2,6-difluoro-4-(1H-1,2,3-triazol-1-yl)phenyl)-7-methylimidazo[1,2-a]pyridin-3-yl)methyl)morpholine-4-carboxylate]",IC50,[1],0.01 to 0.05 µM
"COC(=O)N1CCO[C@@H](Cc2c(-c3c(F)cc(-n4cncn4)cc3F)nc3cc(C)ccn23)C1 [Compound 142, methyl (S)-2-((2-(2,6-difluoro-4-(1H-1,2,4-triazol-1-yl)phenyl)-7-methylimidazo[1,2-a]pyridin-3-yl)methyl)morpholine-4-carboxylate]",IC50,[1],< 0.01 µM
COC(=O)N1CCO[C@@H](Cc2c(-c3c(F)cc(-n4ccc(C#N)c4)cc3F)nc3cc(C)ccn23)C1 [Compound 137],IC50,[1],0.01 to 0.05 µM
COC(=O)N1CCO[C@@H](Cc2c(-c3c(F)cc(-c4ccn(C(F)F)n4)cc3F)nc3cc(C)ccn23)C1 [Compound 102],IC50,[1],< 0.01 µM
COC(=O)N1CCC[C@@H](Cc2c(-c3c(F)cc(S(N)(=O)=O)cc3F)nc3cc(C)ccn23)C1 [Compound 187],IC50,[1],0.05 µM
COC(=O)N1CCO[C@@H](Cc2c(-c3c(F)cc(NC(C)=O)cc3F)nc3cc(F)ccn23)C1 [Compound 148],IC50,[1],< 0.01 µM
CCC(=O)N1CCO[C@@H](Cc2c(-c3c(F)cc(NC(C)=O)cc3F)nc3cc(C(F)F)ccn23)C1 [Compound 157],IC50,[1],< 0.01 µM
"COC(=O)N1CCO[C@@H](Cc2c(-c3c(F)cc(-n4ccc(C5(C(=O)O)CC5)n4)cc3F)nc3cc(C)ccn23)C1 [Compound 130, (S)-1-(1-(3,5-difluoro-4-(3-((4-(carbomethoxy<methoxycarbonyl>)morpholin-2-yl)methyl)-7-methylimidazo[1,2-a]pyridin-2-yl)phenyl)-1H-pyrazol-3-yl)cyclopropane-1-carboxylic acid]",IC50,[1]; [4],0.2 to 5 µM
COC(=O)N1CCO[C@@H](Cc2c(-c3c(F)cc(NC(=O)CC(C)(C)C(=O)O)cc3F)nc3cc(C)ccn23)C1 [Compound 91],IC50,[1],< 0.01 µM
COC(=O)N1CCO[C@@H](Cc2c(-c3c(F)cc(NC(=O)CC(C)(C)O)cc3F)nc3cc(C)ccn23)C1 [Compound 90],IC50,[1],0.01 to 0.05 µM
"CNS(=O)(=O)c1cc(F)c(-c2nc3cc(C)ccn3c2C[C@H]2CN(C(=O)OC)CCO2)c(F)c1 [Compound 43, methyl (S)-2-((2-(2,6-difluoro-4-(N-methylsulfamoyl)phenyl)-7-methylimidazo[1,2-a]pyridin-3-yl)methyl)morpholine-4-carboxylate]",IC50,[1],< 0.01 µM
"COC(=O)N1CCO[C@@H](Cc2c(-c3c(F)cc(-c4nc(C#N)c[nH]4)cc3F)nc3cc(C)ccn23)C1 [Compound 38, methyl (S)-2-((2-(2,6-difluoro-4-(4-cyano-1H-imidazol-2-yl)phenyl)-7-methylimidazo[1,2-a]pyridin-3-yl)methyl)morpholine-4-carboxylate]",IC50,[1],< 0.01 µM
"COC(=O)N1CCO[C@@H](Cc2c(-c3c(F)cc(C(C)=O)cc3F)nc3cc(C)ccn23)C1 [Compound 14, methyl (S)-2-((2-(4-acetyl-2,6-difluorophenyl)-7-methylimidazo[1,2-a]pyridin-3-yl)methyl)morpholine-4-carboxylate]",IC50,[1]; [4],0.2 to 5 µM
COC(=O)N1CCO[C@@H](Cc2c(-c3c(F)cc(N4CCCC4=O)cc3F)nc3cc(C)ccn23)C1 [Compound 101],IC50,[1],0.01 to 0.05 µM
"COC(=O)N1CCO[C@@H](Cc2c(-c3c(F)cc(-n4cnc(C(C)(C)O)c4)cc3F)nc3cc(C)ccn23)C1 [Compound 117, methyl (S)-2-((2-(2,6-difluoro-4-(4-(2-hydroxypropan-2-yl)-1H-imidazol-1-yl)phenyl)-7-methylimidazo[1,2-a]pyridin-3-yl)methyl)morpholine-4-carboxylate]",IC50,[1],0.01 to 0.05 µM
